Patent US10166218B2, “3-(1H-indol-2-yl)-1H-pyrazolo[3,4-C]pyridines and therapeutic uses thereof” (Samumed, LLC, priority 2015, dated 2019)

Assays:
Format in all cases: cell-based
[1] = system: Wnt activity (Sp5-Luc reporter, TCF/LEF binding sites) in SW480 colon carcinoma cells; test: Screening assay for Wnt activity: Sp5-Luc reporter gene assay in stably transduced SW480 cells; conditions: Homo sapiens; for EC50: overnight incubation; for inhibition at 10 µM: read-out: percent inhibition at 10 μM (given for EC50 of >10 μM)
How it was run: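 Wnt-driven firefly luciferase in SW480 colon carcinoma cells reports pathway activity after overnight compound exposure (10 μM top concentration, 3-fold steps). Signal is normalized to DMSO controls.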

SW480 colon cancer cells = test: Cell viability assay (CellTiter-Blue) in SW480 colon cancer cells; conditions: Homo sapiens, 96 h, four days; for EC50: CellTiter-Blue; for inhibition at 10 µM: read-out: percent inhibition at 10 μM (given for EC50 of >10 μM)
How it was run: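 Four-day viability readout in SW480 cells: compound at 0.0045–10 μM (1:3 series), DMSO controls in eight replicates, CellTiter-Blue fluorescence after ~3 h. Values are regression-derived EC50s, or percent inhibition at 10 μM when EC50 exceeds 10 μM.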

IL-6 (THP-1 cells) = test: Inhibition of IL-6 in LPS-stimulated THP-1 human monocyte cells (HTRF); conditions: for inhibition at 10 µM: IL-6 assay in LPS-stimulated THP-1 cells, given only where EC50 >10 μM, meaning not given (top concentration 10 μM), read-out: percentage given in parentheses after EC50 >10; for EC50: inhibition of IL-6 in LPS-stimulated THP-1 cells, HTRF, 10-point dose-response starting from 10 μM
How it was run: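 Readout is the 665/620 nm HTRF ratio for secreted IL-6, normalized to DMSO wells, with EC50 from a variable-slope four-parameter fit, or % inhibition at 10 μM when above 10 μM. Cells (1% FBS, 24 h beforehand) got compound for 2 h, then LPS 500 ng/mL for 22 h at 37° C; top dose 10 μM, 0.1% DMSO.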

Row | EC50 [1] [µM] | EC50 (SW480 colon cancer cells) [µM] | EC50 (IL-6 (THP-1 cells)) [µM] | SMILES | inhibition at 10 µM (IL-6 (THP-1 cells)) [%] | inhibition at 10 µM [1] [%] | inhibition at 10 µM (SW480 colon cancer cells) [%]
1 | 0.59 | 6.84 | > 10 | Cc1ccncc1-c1cc2c(-c3cc4c(-c5cccc(F)c5)cccc4[nH]3)n[nH]c2cn1 [Compound 5, 3-(4-(3-Fluorophenyl)-1H-indol-2-yl)-5-(4-methylpyridin-3-yl)-1H-pyrazolo [3,4-c]pyridine] | 30.7 |  | 
2 | > 10 | 5.42 | 3.21 | O=C(Nc1cncc(-c2cc3c(-c4cc5c(-c6cccc(F)c6)cccc5[nH]4)n[nH]c3cn2)c1)c1ccccc1 [Compound 11, N-(5-(3-(4-(3-Fluorophenyl)-1H-indol-2-yl)-1H-pyrazolo[3,4-c]pyridin-5-yl)pyridin-3-yl)benzamide] |  | 50.2 | 
3 | 1.51 | > 10 | > 10 | O=C(Nc1cncc(-c2cc3c(-c4cc5c(-c6cccc(F)c6)cccc5[nH]4)n[nH]c3cn2)c1)C1CCC1 [Compound 21, N-(5-(3-(4-(3-Fluorophenyl)-1H-indol-2-yl)-1H-pyrazolo[3,4-c]pyridin-5-yl)pyridin-3-yl)cyclobutanecarboxamide] | 0 |  | 11.5
4 | 1.54 | > 10 | 5.13 | CC(C)CC(=O)Nc1cncc(-c2cc3c(-c4cc5c(-c6ccc(F)cc6)cccc5[nH]4)n[nH]c3cn2)c1 [Compound 30, N-(5-(3-(4-(4-Fluorophenyl)-1H-indol-2-yl)-1H-pyrazolo[3,4-c]pyridin-5-yl)pyridin-3-yl)-3-methylbutanamide] |  |  | 28.3
5 | 0.382 | 0.805 | 0.399 | CCNCc1cncc(-c2cc3c(-c4cc5c(-c6ccc(F)cc6)cccc5[nH]4)n[nH]c3cn2)c1 [Compound 34, N-((5-(3-(4-(4-Fluorophenyl)-1H-indol-2-yl)-1H-pyrazolo[3,4-c]pyridin-5-yl)pyridin-3-yl)methyl)ethanamine] |  |  | 
6 | 4.31 | 4.32 | > 10 | O=C(Cc1ccccc1)Nc1cncc(-c2cc3c(-c4cc5c(-c6ccc(F)cc6)cccc5[nH]4)n[nH]c3cn2)c1 [Compound 38, N-(5-(3-(4-(4-Fluorophenyl)-1H-indol-2-yl)-1H-pyrazolo[3,4-c]pyridin-5-yl)pyridin-3-yl)-2-phenylacetamide] | 29.4 |  | 
7 | 1.84 | 1.08 | 3.81 | Fc1ccc(-c2cccc3[nH]c(-c4n[nH]c5cnc(-c6cncc(CN7CCCC7)c6)cc45)cc23)cc1 [Compound 42, 3-(4-(4-Fluorophenyl)-1H-indol-2-yl)-5-(5-(pyrrolidin-1-ylmethyl)pyridin-3-yl)-1H-pyrazolo[3,4-c]pyridine] |  |  | 
8 | > 10 | 9.62 | > 10 | O=C(Nc1cncc(-c2cc3c(-c4cc5c(-c6ccc(F)cc6)cccc5[nH]4)n[nH]c3cn2)c1)C1CCCCC1 [Compound 51, N-(5-(3-(4-(4-Fluorophenyl)-1H-indol-2-yl)-1H-pyrazolo[3,4-c]pyridin-5-yl)pyridin-3-yl)cyclohexanecarboxamide] | 6.7 | 32.6 | 
9 | 4.14 | > 10 | 9.59 | Fc1ccc(-c2cccc3[nH]c(-c4n[nH]c5cnc(-c6cncnc6)cc45)cc23)cc1 [Compound 55, 3-(4-(4-Fluorophenyl)-1H-indol-2-yl)-5-(pyrimidin-5-yl)-1H-pyrazolo[3,4-c]pyridine] |  |  | 13.6
10 | 0.296 | 1.3 | 0.968 | Nc1cncc(-c2cc3c(-c4cc5c(-c6ccccc6F)cccc5[nH]4)n[nH]c3cn2)c1 [Compound 59, 5-(3-(4-(2-Fluorophenyl)-1H-indol-2-yl)-1H-pyrazolo[3,4-c]pyridin-5-yl) pyridin-3-amine] |  |  | 
11 | > 10 | 5.05 | > 10 | CC(C)C(=O)Nc1cncc(-c2cc3c(-c4cc5c(-c6ccccc6F)cccc5[nH]4)n[nH]c3cn2)c1 [Compound 65, N-(5-(3-(4-(2-Fluorophenyl)-1H-indol-2-yl)-1H-pyrazolo[3,4-c]pyridin-5-yl)pyridin-3-yl)isobutyramide] | 30.1 | 35.8 | 
12 | 2.09 | 1.66 | 7.66 | Fc1ccccc1-c1cccc2[nH]c(-c3n[nH]c4cnc(-c5cncc(CN6CCCCC6)c5)cc34)cc12 [Compound 71, 3-(4-(2-Fluorophenyl)-1H-indol-2-yl)-5-(5-(piperidin-1-ylmethyl)pyridin-3-yl)-1H-pyrazolo[3,4-c]pyridine] |  |  | 
13 | > 10 | > 10 | 0.003 | CCCCC(=O)Nc1cncc(-c2cc3c(-c4cc5c(-c6ccccc6F)cccc5[nH]4)n[nH]c3cn2)c1 [Compound 75, N-(5-(3-(4-(2-Fluorophenyl)-1H-indol-2-yl)-1H-pyrazolo[3,4-c]pyridin-5-yl)pyridin-3-yl)pentanamide] |  | 11.1 | 10.7
14 | 0.94 | 6.55 | > 10 | O=C(Nc1cncc(-c2cc3c(-c4cc5c(-c6ccccc6F)cccc5[nH]4)n[nH]c3cn2)c1)C1CC1 [Compound 76, N-(5-(3-(4-(2-Fluorophenyl)-1H-indol-2-yl)-1H-pyrazolo[3,4-c]pyridin-5-yl)pyridin-3-yl)cyclopropanecarboxamide] | 11.1 |  | 
15 | 0.305 | 1.16 | 0.074 | CCC(=O)Nc1cncc(-c2cc3c(-c4cc5c(-c6cccnc6)cccc5[nH]4)n[nH]c3cn2)c1 [Compound 85, N-(5-(3-(4-(Pyridin-3-yl)-1H-indol-2-yl)-1H-pyrazolo[3,4-c]pyridin-5-yl)pyridin-3-yl)propionamide] |  |  | 
16 | 0.26 | 1.09 | 0.109 | c1cncc(-c2cc3c(-c4cc5c(-c6cccnc6)cccc5[nH]4)n[nH]c3cn2)c1 [Compound 88, 5-(Pyridin-3-yl)-3-(4-(pyridin-3-yl)-1H-indol-2-yl)-1H-pyrazolo[3,4-c]pyridine] |  |  | 
17 | 0.275 | 0.305 | 0.181 | CC(C)C(=O)Nc1cncc(-c2cc3c(-c4cc5c(-c6cccnc6)cccc5[nH]4)n[nH]c3cn2)c1 [Compound 93, N-(5-(3-(4-(Pyridin-3-yl)-1H-indol-2-yl)-1H-pyrazolo[3,4-c]pyridin-5-yl)pyridin-3-yl)isobutyramide] |  |  | 
18 | 0.4 | 1.4 | 0.727 | O=C(Nc1cncc(-c2cc3c(-c4cc5c(-c6cccnc6)cccc5[nH]4)n[nH]c3cn2)c1)c1ccccc1 [Compound 95, N-(5-(3-(4-(Pyridin-3-yl)-1H-indol-2-yl)-1H-pyrazolo[3,4-c]pyridin-5-yl)pyridin-3-yl)benzamide] |  |  | 
19 | 1.2 | 7.22 | 1.52 | c1cncc(-c2cccc3[nH]c(-c4n[nH]c5cnc(-c6cncc(CN7CCCC7)c6)cc45)cc23)c1 [Compound 98, 3-(4-(Pyridin-3-yl)-1H-indol-2-yl)-5-(5-(pyrrolidin-1-ylmethyl)pyridin-3-yl)-1H-pyrazolo[3,4-c]pyridine] |  |  | 
20 | 0.336 | 1.47 | 0.226 | O=C(Nc1cncc(-c2cc3c(-c4cc5c(-c6cccnc6)cccc5[nH]4)n[nH]c3cn2)c1)C1CC1 [Compound 104, N-(5-(3-(4-(Pyridin-3-yl)-1H-indol-2-yl)-1H-pyrazolo[3,4-c]pyridin-5-yl)pyridin-3-yl)cyclopropanecarboxamide] |  |  | 
